For one test, the target named is T1, PI5P4Kβ (Homo sapiens, UniProt P78356).
T1 sequence (P78356 1-416): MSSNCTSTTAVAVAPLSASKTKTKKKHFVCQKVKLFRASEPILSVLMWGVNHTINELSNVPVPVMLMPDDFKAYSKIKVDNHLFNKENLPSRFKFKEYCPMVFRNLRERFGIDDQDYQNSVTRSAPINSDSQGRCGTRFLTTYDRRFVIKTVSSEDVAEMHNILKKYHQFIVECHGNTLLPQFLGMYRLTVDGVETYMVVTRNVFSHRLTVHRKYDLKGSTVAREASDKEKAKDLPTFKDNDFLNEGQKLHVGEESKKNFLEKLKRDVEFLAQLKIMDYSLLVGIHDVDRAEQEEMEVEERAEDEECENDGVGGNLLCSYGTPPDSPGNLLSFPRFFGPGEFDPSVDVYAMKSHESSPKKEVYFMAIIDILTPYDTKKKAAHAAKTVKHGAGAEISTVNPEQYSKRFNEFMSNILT
Further details: method as in ref 30 (a number printed in a supplementary file, which may have a reference list of its own: not looked up in the article's list). As to conditions: 32P-ATP/PI5P incorporation, showed 'small but significant stimulation'; cited from earlier work.

The next test concerns the target Choline Kinase alpha (Homo sapiens, UniProt P35790). Nature of the test: Lipid kinase panel, ADP-Glo. It counts as biochemical. An excerpt: (§1) Kinase % activity remaining s.d.
(§2) Choline Kinase alpha 101.6 3.2
In general terms: In ADP-Glo the light output rises with the ADP produced.

For the next test, the target named is DGK gamma (Homo sapiens, UniProt P49619). The test is described as follows: Lipid kinase panel, ADP-Glo. Format: biochemical.
Text: as §1, §2

The next test concerns the target DGK zeta (Homo sapiens, UniProt Q13574). The test is described as follows: Lipid kinase panel, ADP-Glo. It counts as biochemical.
Text: as §1, §2

A further test deals with PI3K beta (Homo sapiens, UniProt P42338). Nature of the test: Lipid kinase panel, ADP-Glo. It counts as biochemical.
Text: as §1, §2

In a further test the target is PI3K gamma (Homo sapiens, UniProt P48736). Nature of the test: Lipid kinase panel, ADP-Glo. It counts as biochemical.
Text: as §1, §2

The next test has as its target PI3KA E545K +P85 (Homo sapiens, UniProt P42336, E545K). Nature of the test: Lipid kinase panel, ADP-Glo. It counts as biochemical. Conditions: PI3KA E545K +P85, 10 μM.
Text: as §1, §2

For another test, the system named is PI3Ka E524K +P85. The test is described as follows: Lipid kinase panel, ADP-Glo. It counts as biochemical. As to conditions: PI3Ka E524K +P85, 10 μM.
Text: as §1, §2

A further test has as its target PI3Kalpha (Homo sapiens, UniProt P42336). Nature of the test: Lipid kinase panel, ADP-Glo. It counts as biochemical.
Text: as §1, §2

A further test concerns the target PI4K2a (Homo sapiens, UniProt Q9BTU6). The test is described as follows: Lipid kinase panel, ADP-Glo. It counts as biochemical.
Text: as §1, §2

The target in the next test is SPHK1 (Homo sapiens, UniProt Q9NYA1). Nature of the test: Lipid kinase panel, ADP-Glo. Format: biochemical. As to conditions: SPHK1, 10 μM.
Text: as §1, §2

The next test addresses MKK2 (Homo sapiens, UniProt P36507). The test is described as follows: Kinase panel, radiometric 33P filter binding. As to conditions: read-out: % activity remaining.
A further test concerns the target MKK6 (Homo sapiens, UniProt P52564). Nature of the test: Kinase panel, radiometric 33P filter binding. Conditions: read-out: % activity remaining.
For a further test, the target named is RSK2 (Homo sapiens, UniProt P51812). The test is described as follows: Kinase panel, radiometric 33P filter binding. Conditions: read-out: % activity remaining.
A further test addresses S6K1 (Homo sapiens, UniProt P23443). The test is described as follows: Kinase panel, radiometric 33P filter binding. As to conditions: read-out: % activity remaining.
The target of the next test is Aurora A (Homo sapiens, UniProt O14965). The test is described as follows: Kinase panel, radiometric 33P filter binding. Conditions: read-out: % activity remaining.
The target of another test is LKB1 (Homo sapiens, UniProt Q15831). The test is described as follows: Kinase panel, radiometric 33P filter binding. Conditions: read-out: % activity remaining.
The next test deals with MARK1 (Homo sapiens, UniProt Q9P0L2). The test is described as follows: Kinase panel, radiometric 33P filter binding. As to conditions: read-out: % activity remaining.
The target of the next test is TSSK1 (Homo sapiens, UniProt Q9BXA7). Nature of the test: Kinase panel, radiometric 33P filter binding. As to conditions: read-out: % activity remaining.
Another test addresses TTBK2 (Homo sapiens, UniProt Q6IQ55). The test is described as follows: Kinase panel, radiometric 33P filter binding. Conditions: read-out: % activity remaining.
A further test has as its target IKKb (Homo sapiens, UniProt O14920). Nature of the test: Kinase panel, radiometric 33P filter binding. Conditions: read-out: % activity remaining.
The next test deals with IKKe (Homo sapiens, UniProt Q14164). Nature of the test: Kinase panel, radiometric 33P filter binding. Conditions: read-out: % activity remaining.
A further test has as its target PAK2 (Homo sapiens, UniProt Q13177). The test is described as follows: Kinase panel, radiometric 33P filter binding.
Another test deals with PAK4 (Homo sapiens, UniProt O96013). The test is described as follows: Kinase panel, radiometric 33P filter binding. As to conditions: read-out: % activity remaining.
Another test concerns the target MST2 (Homo sapiens, UniProt Q13188). Nature of the test: Kinase panel, radiometric 33P filter binding. As to conditions: read-out: % activity remaining.
The next test deals with MAP4K3 (Homo sapiens, UniProt Q8IVH8). Nature of the test: Kinase panel, radiometric 33P filter binding. Conditions: read-out: % activity remaining.
The target in another test is ULK2 (Homo sapiens, UniProt Q8IYT8). The test is described as follows: Kinase panel, radiometric 33P filter binding. Conditions: read-out: % activity remaining.
In the next test the target is TGFBR1 (Homo sapiens, UniProt P36897). The test is described as follows: Kinase panel, radiometric 33P filter binding. Conditions: read-out: % activity remaining.
The next test deals with Src (Homo sapiens, UniProt P12931). The test is described as follows: Kinase panel, radiometric 33P filter binding. As to conditions: read-out: % activity remaining.
The next test has as its target BTK (Homo sapiens, UniProt Q06187). The test is described as follows: Kinase panel, radiometric 33P filter binding. As to conditions: read-out: % activity remaining.
The target in another test is DDR2 (Homo sapiens, UniProt Q16832). The test is described as follows: Kinase panel, radiometric 33P filter binding. Conditions: read-out: % activity remaining.
The target of a further test is PDGFRA (Homo sapiens, UniProt P16234). The test is described as follows: Kinase panel, radiometric 33P filter binding. As to conditions: read-out: % activity remaining.

Data on 2 compounds can be found in paper PMC9097471, “Development of Selective Phosphatidylinositol 5-Phosphate 4-Kinase γ Inhibitors with a Non-ATP-competitive, Allosteric Binding Mode” (Journal of Medicinal Chemistry, 2022).

Chain of PAK2 (Q13177 whole entry): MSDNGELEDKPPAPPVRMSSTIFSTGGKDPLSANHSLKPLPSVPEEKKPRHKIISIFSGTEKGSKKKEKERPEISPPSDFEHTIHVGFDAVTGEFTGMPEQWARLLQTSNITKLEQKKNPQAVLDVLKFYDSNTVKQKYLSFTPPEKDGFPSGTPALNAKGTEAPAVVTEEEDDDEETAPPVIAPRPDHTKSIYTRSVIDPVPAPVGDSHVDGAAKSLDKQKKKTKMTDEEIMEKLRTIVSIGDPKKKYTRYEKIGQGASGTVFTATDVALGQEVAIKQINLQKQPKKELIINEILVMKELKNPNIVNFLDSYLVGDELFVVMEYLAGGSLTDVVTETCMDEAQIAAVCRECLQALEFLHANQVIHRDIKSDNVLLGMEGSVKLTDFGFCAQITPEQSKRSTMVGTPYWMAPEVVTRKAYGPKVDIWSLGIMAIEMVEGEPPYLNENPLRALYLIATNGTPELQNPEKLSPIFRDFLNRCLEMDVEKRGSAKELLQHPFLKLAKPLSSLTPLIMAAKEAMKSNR
Chain of S6K1 (P23443 whole entry): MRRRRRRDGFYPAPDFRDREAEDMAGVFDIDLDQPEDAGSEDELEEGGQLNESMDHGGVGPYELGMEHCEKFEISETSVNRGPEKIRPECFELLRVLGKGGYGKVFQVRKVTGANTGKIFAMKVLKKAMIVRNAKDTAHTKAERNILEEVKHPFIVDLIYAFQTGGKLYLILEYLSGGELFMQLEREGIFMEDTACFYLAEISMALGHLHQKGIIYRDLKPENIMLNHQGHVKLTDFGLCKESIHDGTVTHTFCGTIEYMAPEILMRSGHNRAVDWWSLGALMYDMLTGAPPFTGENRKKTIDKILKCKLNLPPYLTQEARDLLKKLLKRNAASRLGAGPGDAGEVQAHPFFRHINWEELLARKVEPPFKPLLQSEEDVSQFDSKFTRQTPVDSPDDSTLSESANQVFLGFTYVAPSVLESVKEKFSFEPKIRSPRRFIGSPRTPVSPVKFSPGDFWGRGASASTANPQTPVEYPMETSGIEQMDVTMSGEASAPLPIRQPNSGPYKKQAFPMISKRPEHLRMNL
Chain of Src (P12931 whole entry): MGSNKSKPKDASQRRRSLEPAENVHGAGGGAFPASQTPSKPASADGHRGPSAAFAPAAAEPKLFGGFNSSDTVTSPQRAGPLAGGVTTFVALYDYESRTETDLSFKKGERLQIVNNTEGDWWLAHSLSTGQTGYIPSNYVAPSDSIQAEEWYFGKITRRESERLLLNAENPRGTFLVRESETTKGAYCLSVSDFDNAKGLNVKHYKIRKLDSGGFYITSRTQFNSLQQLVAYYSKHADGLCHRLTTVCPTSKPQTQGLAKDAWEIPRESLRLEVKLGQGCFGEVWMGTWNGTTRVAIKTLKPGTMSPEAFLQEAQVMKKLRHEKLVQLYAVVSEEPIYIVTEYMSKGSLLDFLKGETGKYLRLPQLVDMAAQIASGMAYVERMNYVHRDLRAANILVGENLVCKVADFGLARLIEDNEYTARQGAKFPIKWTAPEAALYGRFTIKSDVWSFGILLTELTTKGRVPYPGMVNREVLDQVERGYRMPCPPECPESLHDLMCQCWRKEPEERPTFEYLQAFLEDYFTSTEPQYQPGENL
Chain of DGK zeta (Q13574 whole entry, species assumed): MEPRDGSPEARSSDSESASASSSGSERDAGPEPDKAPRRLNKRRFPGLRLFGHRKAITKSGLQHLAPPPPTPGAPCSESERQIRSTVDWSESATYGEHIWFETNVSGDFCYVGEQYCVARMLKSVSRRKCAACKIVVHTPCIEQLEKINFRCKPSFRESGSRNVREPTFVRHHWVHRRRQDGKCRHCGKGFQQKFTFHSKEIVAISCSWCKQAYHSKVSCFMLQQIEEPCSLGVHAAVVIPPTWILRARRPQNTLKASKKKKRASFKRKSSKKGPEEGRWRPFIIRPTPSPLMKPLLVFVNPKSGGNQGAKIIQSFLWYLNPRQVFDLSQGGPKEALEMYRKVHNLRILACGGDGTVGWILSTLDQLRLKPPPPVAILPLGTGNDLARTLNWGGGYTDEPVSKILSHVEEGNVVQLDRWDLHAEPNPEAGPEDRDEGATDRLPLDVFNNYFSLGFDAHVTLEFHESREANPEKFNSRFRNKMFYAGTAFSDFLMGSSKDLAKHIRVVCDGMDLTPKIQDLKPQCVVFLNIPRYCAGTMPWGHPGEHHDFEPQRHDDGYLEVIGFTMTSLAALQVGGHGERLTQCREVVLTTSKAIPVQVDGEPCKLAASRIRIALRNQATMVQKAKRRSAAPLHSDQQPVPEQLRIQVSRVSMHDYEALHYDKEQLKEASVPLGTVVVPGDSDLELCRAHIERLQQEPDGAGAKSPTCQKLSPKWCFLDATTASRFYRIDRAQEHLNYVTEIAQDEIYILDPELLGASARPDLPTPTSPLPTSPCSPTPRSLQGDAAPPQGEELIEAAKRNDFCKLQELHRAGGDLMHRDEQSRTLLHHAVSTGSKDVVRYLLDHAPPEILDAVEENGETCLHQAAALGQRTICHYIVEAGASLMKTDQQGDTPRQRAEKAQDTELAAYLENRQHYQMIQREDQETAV
Chain of PI3K gamma (P48736 whole entry, species assumed): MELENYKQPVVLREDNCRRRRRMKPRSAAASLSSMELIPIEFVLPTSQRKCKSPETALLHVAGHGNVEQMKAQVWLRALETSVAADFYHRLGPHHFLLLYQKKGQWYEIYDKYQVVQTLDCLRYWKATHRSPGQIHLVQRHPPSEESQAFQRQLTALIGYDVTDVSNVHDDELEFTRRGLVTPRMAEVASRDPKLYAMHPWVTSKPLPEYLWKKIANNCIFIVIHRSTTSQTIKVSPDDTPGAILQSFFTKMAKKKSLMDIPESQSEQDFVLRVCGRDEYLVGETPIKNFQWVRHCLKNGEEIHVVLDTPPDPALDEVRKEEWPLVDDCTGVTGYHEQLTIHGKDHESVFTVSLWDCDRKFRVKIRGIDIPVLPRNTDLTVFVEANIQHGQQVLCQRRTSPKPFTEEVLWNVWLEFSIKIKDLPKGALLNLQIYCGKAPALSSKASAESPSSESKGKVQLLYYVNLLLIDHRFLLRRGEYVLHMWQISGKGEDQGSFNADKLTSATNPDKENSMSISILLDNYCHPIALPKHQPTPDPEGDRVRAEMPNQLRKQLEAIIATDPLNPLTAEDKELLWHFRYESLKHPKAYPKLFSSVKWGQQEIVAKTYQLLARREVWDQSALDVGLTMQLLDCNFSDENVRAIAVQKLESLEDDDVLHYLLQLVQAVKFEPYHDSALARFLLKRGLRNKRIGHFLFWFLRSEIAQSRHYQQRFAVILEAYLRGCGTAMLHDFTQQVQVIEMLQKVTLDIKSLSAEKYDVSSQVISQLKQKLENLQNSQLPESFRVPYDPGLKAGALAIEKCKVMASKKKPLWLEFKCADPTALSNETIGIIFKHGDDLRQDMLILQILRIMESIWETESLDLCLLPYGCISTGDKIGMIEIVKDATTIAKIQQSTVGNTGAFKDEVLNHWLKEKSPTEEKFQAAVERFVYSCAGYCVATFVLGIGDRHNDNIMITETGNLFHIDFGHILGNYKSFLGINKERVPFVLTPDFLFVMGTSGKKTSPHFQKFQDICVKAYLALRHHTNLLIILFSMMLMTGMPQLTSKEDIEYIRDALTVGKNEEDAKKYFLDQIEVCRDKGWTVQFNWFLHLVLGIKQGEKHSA
Chain of MKK2 (P36507 whole entry): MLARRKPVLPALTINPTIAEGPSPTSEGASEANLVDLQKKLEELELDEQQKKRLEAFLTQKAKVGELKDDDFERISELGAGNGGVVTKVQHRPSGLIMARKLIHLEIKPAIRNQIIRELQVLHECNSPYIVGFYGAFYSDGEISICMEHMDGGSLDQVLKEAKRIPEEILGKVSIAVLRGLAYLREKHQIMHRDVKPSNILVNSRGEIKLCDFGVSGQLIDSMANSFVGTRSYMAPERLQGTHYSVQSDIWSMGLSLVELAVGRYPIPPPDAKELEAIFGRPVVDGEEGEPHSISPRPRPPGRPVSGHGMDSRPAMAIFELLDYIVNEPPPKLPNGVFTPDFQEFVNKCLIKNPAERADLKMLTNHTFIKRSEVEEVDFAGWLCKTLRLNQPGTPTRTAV
Chain of MAP4K3 (Q8IVH8 whole entry): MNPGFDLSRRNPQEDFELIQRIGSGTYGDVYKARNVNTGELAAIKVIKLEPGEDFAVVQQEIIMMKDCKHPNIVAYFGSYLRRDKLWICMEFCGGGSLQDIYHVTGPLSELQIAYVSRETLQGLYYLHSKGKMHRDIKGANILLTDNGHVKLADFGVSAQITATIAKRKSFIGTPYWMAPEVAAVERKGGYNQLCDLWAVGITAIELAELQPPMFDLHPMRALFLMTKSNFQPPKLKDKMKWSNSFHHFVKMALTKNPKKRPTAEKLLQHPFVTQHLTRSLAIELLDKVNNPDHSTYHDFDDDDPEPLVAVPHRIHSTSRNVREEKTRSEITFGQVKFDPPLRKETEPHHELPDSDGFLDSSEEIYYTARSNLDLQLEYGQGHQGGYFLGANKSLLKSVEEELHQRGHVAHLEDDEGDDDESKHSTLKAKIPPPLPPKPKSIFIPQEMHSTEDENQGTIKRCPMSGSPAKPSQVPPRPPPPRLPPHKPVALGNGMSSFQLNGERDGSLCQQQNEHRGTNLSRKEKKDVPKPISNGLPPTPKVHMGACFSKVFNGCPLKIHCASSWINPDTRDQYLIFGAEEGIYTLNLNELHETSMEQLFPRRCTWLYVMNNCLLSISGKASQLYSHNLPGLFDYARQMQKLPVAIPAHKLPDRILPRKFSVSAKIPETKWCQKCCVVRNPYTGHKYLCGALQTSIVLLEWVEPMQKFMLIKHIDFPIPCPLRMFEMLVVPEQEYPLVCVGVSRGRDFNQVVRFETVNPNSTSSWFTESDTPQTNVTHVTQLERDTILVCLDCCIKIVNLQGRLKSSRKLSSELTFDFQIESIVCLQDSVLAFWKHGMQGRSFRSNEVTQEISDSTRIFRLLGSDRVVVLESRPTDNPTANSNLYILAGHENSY
Text for Aurora A: (§3) filter binding assay using 33P-g-ATPat the MRC PPU International Centre for Kinase Profiling, University of
Text for DDR2: as §3
Text for IKKb: as §3
Text for IKKe: as §3
Text for LKB1: as §3
Text for MAP4K3: as §3
Text for MARK1: as §3
Text for PAK4: as §3
Text for PDGFRA: as §3
Text for RSK2: as §3
Text for S6K1: as §3
Text for TSSK1: as §3
Text for TTBK2: as §3
Text for ULK2: as §3

In general, IC50 refers to the midpoint of a concentration-inhibition curve. Regarding `FC(F)(F)c1ccccc1-c1nc(NCc2cccs2)c2ccccc2n1` [Compound 1, NIH-12848, reference compound], the IC50 on PI5P4Kβ was greater than 100 µM.
The term remaining activity denotes the signal under treatment as a percentage of the control signal. Consider `CC(C)c1ccccc1-c1nc(NCc2ccccn2)c2c(ccn2C)n1` [Compound 40], for which the remaining activity at 10 µM at Choline Kinase alpha was 102%; at DGK gamma, 99.4%; at DGK zeta, 106%; at PI3K beta, 111%; at PI3K gamma, 103%; at PI3KA E545K +P85 it was 91.7%. Also, the remaining activity at 10 µM amounted to 91.4% at PI3Kalpha; 93.5% at PI4K2a; 91.8% at SPHK1; 115% at MKK2; 90% on MKK6; 106% on RSK2. Further, the remaining activity at 10 µM on S6K1 was 95%; at Aurora A, 94%; at LKB1 it was 94%; on MARK1, 88%; on TSSK1 it was 96%; at TTBK2 it was 114%. Moreover, the remaining activity at 10 µM was determined as 100% at IKKb; 98% at IKKe; 45% on PAK2 (read-out: % activity remaining, PAK2, 10 μM); 95% on PAK4; 115% at MST2; 91% on MAP4K3. Besides, the remaining activity at 10 µM on ULK2 came out at 91%; on TGFBR1 it was 91%; at Src, 135%; on BTK it was 111%; at DDR2, 90%; on PDGFRA it was 100%. The “% activity remaining” value in the test on PI3Ka E524K +P85 was 102.0%; on PAK2 (PAK2, 10 μM, 10 µM) it was less than 50%.
